Assay results from patent US20250129021A1, “SMALL MOLECULE PROTEIN SYNTHESIS MODULATORS” (Interdict Bio, Inc., priority 2023, published 2025).
Like-named read-outs stand apart in the source and are kept apart here.

Key:
BCL-2 = experiment: In vitro transcription-translation (IVTT) assay, BCL-2 reporter; assay type: biochemical; conditions: HeLa S3 lysate, sfGFP/mCherry ratio, 2 hrs at 30° C.
How it was run: (§1)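 Reporter: mCherry, P2A, then 3×FLAG-target peptide-sfGFP fusion, IRES-initiated; HeLa S3 lysate IVTT; cpd dilutions 30 μM−0.1 μM half-log in 100% DMSO (dilution-plate conc); DNA added last; 2 h, 30° C; PBS quench.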

CCND1 = experiment: In vitro transcription-translation (IVTT) assay, CCND1 reporter; assay type: biochemical; conditions: HeLa S3 lysate, sfGFP/mCherry ratio
How it was run: as §1

MYC = experiment: In vitro transcription-translation (IVTT) assay, MYC reporter; assay type: biochemical; conditions: HeLa S3 lysate, 2 hrs at 30° C.
How it was run: as §1

MCF7 = experiment: Cell viability (CellTiter-Fluor), MCF7; assay type: cell-based; conditions: Homo sapiens, 24-72 hrs
Description: (§2) Count and dispense 2,000-10,000 cells per well (100 μL volume) in black 96-well tissue culture microplate and let cells adhere overnight. Add compound dissolved in 100% DMSO to each well as needed and incubate cells in standard culture conditions for 24-72 hrs. Final DMSO concentration in each well should be 0.1-0.5%. At the desired time point, gently aspirate compound containing media and replace with PBS to wash. Repeat wash step for 2 total washes. Remove PBS and add 100 μL CellTiter-Fluor reagent (Promega) reagent to each well. Seal plate and incubate 1 hr at room temperature with orbital shaking. Analyze fluorescence using plate reader to quantify viable cells compared with vehicle (DMSO) control.

HEK 293T = experiment: Cell viability (CellTiter-Fluor), HEK 293T; assay type: cell-based; conditions: Homo sapiens, 24-72 hrs
Description: as §2

MCL-1 = experiment: In vitro transcription-translation (IVTT) assay, MCL-1 reporter; assay type: biochemical; conditions: HeLa S3 lysate, sfGFP/mCherry ratio
How it was run: as §1

HPAF-II = experiment: Cell viability (CellTiter-Fluor), HPAF-II; assay type: cell-based; conditions: Homo sapiens, 24-72 hrs
Description: as §2

LS411N = experiment: Cell viability (CellTiter-Fluor), LS411N; assay type: cell-based; conditions: Homo sapiens, LS-411N, 24-72 hrs
Description: as §2

KLE = experiment: Cell viability (CellTiter-Fluor), KLE; assay type: cell-based; conditions: Homo sapiens, 24-72 hrs
Description: as §2

NCI-H1915 = experiment: Cell viability (CellTiter-Fluor), NCI-H1915; assay type: cell-based; conditions: 24-72 hrs
Description: as §2

ALK = experiment: In vitro transcription-translation (IVTT) assay, ALK reporter; assay type: biochemical; conditions: HeLa S3 lysate, sfGFP/mCherry ratio, 2 hrs at 30° C.
How it was run: as §1

NFKB1 = experiment: In vitro transcription-translation (IVTT) assay, NFKB1 reporter; assay type: biochemical; conditions: HeLa S3 lysate, sfGFP/mCherry ratio
How it was run: (§3)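 Cell-free HeLa S3 lysate reactions expressing sfGFP/mCherry reporter constructs ran 2 h at 30 °C with compound from half-log DMSO series (30 μM–0.1 μM as prepared), then were quenched with PBS. No-DNA background was subtracted, and the sfGFP/mCherry ratio was normalized to the no-drug control and fit for IC50.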

JAK1 = experiment: In vitro transcription-translation (IVTT) assay, JAK1 reporter; assay type: biochemical; conditions: HeLa S3 lysate, sfGFP/mCherry ratio
Description: (§4) In vitro transcription-translation assay setup: Each assay includes a master mix containing lysate and shared components, a 96-well plate containing compound titrations for testing, a 96-well DNA plate with reporter constructs to be tested, 96-well skirted PCR plates, and 96-well flat-bottom, black, fluorescent assay plates. Reaction materials setup: (A) Master mix—15 mL conical tube (3 mL of HeLa S3 Lysate described above; 0.6 mL of ThermoFisher Accessory Proteins (#88882); 1.2 ml of ThermoFisher Reaction Mix (#88882); 0.54 mL of nuclease-free Water); (B) 96-Well Master Mix+Compound Plate (Half-log dilutions (30 μM−0.1 μM) of 4 compounds of interest are prepared in 100% DMSO); 96-Well DNA Plate (Five DNA constructs are plated into single columns within the plate. Row 1 of the column contains nuclease free H2O, all other wells contain 110 ng/μL plasmid DNA). Reactions are started by mixing 155 μL of master mix and 3.5 μL of compound serial dilutions, then 9.1 μL of master mix+compound mixture is aliquoted across 5 96-well plates. Reactions begin with final addition of 2 μL of DNA for a 11.1 μL reaction volume in each well. The entire plate is sealed, and incubated for 2 hrs at 30° C. After 2 hrs, quench the assay using 45 μL of PBS, and transfer 50 μL to a flat-bottom black microplate Quantify the sfGFP and mCherry signals from each well on each plate, taking 3 reads of each plate, and perform data analysis below.
(§5) In vitro transcription-translation assay data analysis: Each plate is read three times in channels for both sfGFP and mCherry signals. The average signal across these 3 reads is then calculated for further analysis. Control wells containing no DNA reporter are subtracted from reporter wells in the same column to remove auto-fluorescence of the lysate. Then, the ratio of sfGFP/mCherry is calculated per well, and these ratios are averaged across the triplicate experiments on the same plate. Finally, the ratio of each titration concentration is normalized to the no drug control to create the normalized stalling metric. The error on this measurement is determined by propagating error through the averaging and normalization steps. Values are plotted and fit for IC50 determination for each test sequence and titration of compound.

cGAS = experiment: In vitro transcription-translation (IVTT) assay, cGAS reporter; assay type: biochemical; conditions: HeLa S3 lysate, sfGFP/mCherry ratio
Description: as §4, §5

CCNTB1 = experiment: In vitro transcription-translation (IVTT) assay, CCNTB1 reporter; assay type: biochemical; conditions: HeLa S3 lysate, sfGFP/mCherry ratio
How it was run: as §3

STING = experiment: In vitro transcription-translation (IVTT) assay, STING reporter; assay type: biochemical; conditions: HeLa S3 lysate, sfGFP/mCherry ratio
Description: as §4, §5

HEPG2 = experiment: Cell viability (CellTiter-Fluor), HEPG2; assay type: cell-based; conditions: Homo sapiens, 24-72 hrs
Description: as §2

KRAS G12D = experiment: In vitro transcription-translation (IVTT) assay, KRAS G12D reporter; assay type: biochemical; conditions: HeLa S3 lysate, sfGFP/mCherry ratio, 2 hrs at 30° C.
How it was run: as §1

Compound | IC50 (BCL-2) | IC50 (CCND1; 2 hrs at 30° C.) | IC50 (MYC; sfGFP/mCherry ratio) | IC50 (MCF7) | IC50 (HEK 293T) | IC50 (MCL-1; 2 hrs at 30° C.) | IC50 (HPAF-II) | IC50 (LS411N) | IC50 (NCI-H1915) | further results
COc1ccc(C[C@H]2NC[C@H](O)[C@H]2OC(=O)NCCNc2ncc[nH]2)cc1 [V187825, (2R,3S,4S)-4-hydroxy-2-[(4-methoxyphenyl)methyl]pyrrolidin-3-yl N-[2-(1H-imidazol-2-ylamino)ethyl]carbamate] | 20 to 30 µM | 10 to 20 µM | 20 to 30 µM | ≥ 4 µM | ≥ 4 µM | 10 to 20 µM | – | – | – | –
COc1ccc(C[C@H]2NC[C@H](O)[C@H]2OC(=O)NCCc2ccncc2C#N)cc1 [V187940, (2R,3S,4S)-4-hydroxy-2-[(4-methoxyphenyl)methyl]pyrrolidin-3-yl N-[2-(3-cyanopyridin-4-yl)ethyl]carbamate] | < 10 µM | < 10 µM | < 10 µM | 1 to 4 µM | 0.25 to 1 µM | < 10 µM | – | – | – | –
COc1ccc(C[C@H]2NC[C@H](O)[C@H]2OC(=O)NCCc2cnn[nH]2)cc1 [Cmpd V187783] | < 10 µM | – | < 10 µM | 1 to 4 µM | 0.25 to 1 µM | < 10 µM | – | – | – | –
COc1ccc(C[C@H]2NC[C@H](O)[C@H]2OC(=O)NCCNc2nccs2)cc1 [V187826, (2R,3S,4S)-4-hydroxy-2-[(4-methoxyphenyl)methyl]pyrrolidin-3-yl N-[2-(1,3-thiazol-2-ylamino)ethyl]carbamate] | 20 to 30 µM | 20 to 30 µM | < 10 µM | 1 to 4 µM | 1 to 4 µM | 10 to 20 µM | – | – | – | –
COc1ccc(C[C@H]2NC[C@H](O)[C@H]2OC(=O)NCC[C@H]2CCNC2)cc1 [Cmpd V187879] | 10 to 20 µM | < 10 µM | < 10 µM | 1 to 4 µM | ≥ 4 µM | < 10 µM | – | – | – | –
COc1ccc(C[C@H]2NC[C@H](O)[C@H]2OC(=O)NCc2cc[nH]c(=O)c2)cc1 [V188053, (2R,3S,4S)-4-hydroxy-2-[(4-methoxyphenyl)methyl]pyrrolidin-3-yl N-[(2-oxo-1H-pyridin-4-yl)methyl]carbamate] | – | < 10 µM | < 10 µM | 1 to 4 µM | 1 to 4 µM | < 10 µM | 1 to 4 µM | 1 to 4 µM | 1 to 4 µM | IC50 (KLE): 1 to 4 µM
COc1ccc(C[C@H]2NC[C@H](O)[C@H]2OC(=O)NCCn2ccnc2)cc1 [V187819, (2R,3S,4S)-4-hydroxy-2-[(4-methoxyphenyl)methyl]pyrrolidin-3-yl N-[2-(imidazol-1-yl)ethyl]carbamate] | – | < 10 µM | < 10 µM | 1 to 4 µM | ≥ 4 µM | < 10 µM | – | – | – | IC50 (ALK): < 10 µM
O=C(NCc1cccc(F)c1)O[C@@H]1[C@@H](O)CN[C@@H]1Cc1ccc(-c2cnc(C(F)(F)F)s2)cc1 [V192114, (2R,3S,4S)-4-hydroxy-2-({4-[2-(trifluoromethyl)-1,3-thiazol-5-yl]phenyl}methyl)pyrrolidin-3-yl N-[(3-fluorophenyl)methyl]carbamate] | – | – | – | – | – | – | – | – | – | IC50 (CCND1; IVTT assay): > 30 µM; IC50 (NFKB1): < 10 µM; IC50 (JAK1): 10 to 20 µM; IC50 (MYC; IVTT assay, MYC reporter, normalized sfGFP/mCherry ratio, half-log dilutions 30 μM-0.1 μM): > 30 µM; IC50 (cGAS): < 10 µM; IC50 (CCNTB1): > 30 µM; IC50 (MCL-1; IVTT assay, read-out: MCL1 IC50): > 30 µM; IC50 (STING): > 30 µM
COc1ccc(C[C@H]2NC[C@H](O)[C@H]2OC(=O)NCc2ccnc(N)c2)cc1 [V187988, (2R,3S,4S)-4-hydroxy-2-[(4-methoxyphenyl)methyl]pyrrolidin-3-yl N-[(2-aminopyridin-4-yl)methyl]carbamate] | < 10 µM | < 10 µM | < 10 µM | 0.25 to 1 µM | 0.25 to 1 µM | < 10 µM | 1 to 4 µM | 0.25 to 1 µM | 0.25 to 1 µM | IC50 (HEPG2): ≥ 4 µM; IC50 (KLE): 0.25 to 1 µM
COc1ccc(C[C@H]2NC[C@H](O)[C@H]2OC(=O)NCC[C@@H]2CCNC2)cc1 [V187878, (2R,3S,4S)-4-hydroxy-2-[(4-methoxyphenyl)methyl]pyrrolidin-3-yl N-{2-[(3S)-pyrrolidin-3-yl]ethyl}carbamate] | 10 to 20 µM | – | < 10 µM | 0.25 to 1 µM | ≥ 4 µM | < 10 µM | ≥ 4 µM | 1 to 4 µM | ≥ 4 µM | IC50 (HEPG2): 1 to 4 µM; IC50 (KLE): ≥ 4 µM
COc1ccc(C[C@H]2NC[C@H](O)[C@H]2OC(=O)NC[C@@H]2CCNC2)cc1 [V187685, (2R,3S,4S)-4-hydroxy-2-[(4-methoxyphenyl)methyl]pyrrolidin-3-yl N-[(3R)-pyrrolidin-3-ylmethyl]carbamate] | 10 to 20 µM | – | < 10 µM | 1 to 4 µM | ≥ 4 µM | < 10 µM | – | – | – | IC50 (KRAS G12D): 10 to 20 µM
COc1ccc(C[C@H]2NC[C@H](O)[C@H]2OC(=O)NCc2ccnnc2)cc1 [V187917, (2R,3S,4S)-4-hydroxy-2-[(4-methoxyphenyl)methyl]pyrrolidin-3-yl N-(pyridazin-4-ylmethyl)carbamate] | < 10 µM | < 10 µM | < 10 µM | 0.25 to 1 µM | < 0.25 µM | < 10 µM | 1 to 4 µM | 0.25 to 1 µM | 0.25 to 1 µM | IC50 (HEPG2): 1 to 4 µM; IC50 (KLE): 0.25 to 1 µM
COc1ccc(C[C@H]2NC[C@H](O)[C@H]2OC(=O)NCCc2cnc(N)[nH]2)cc1 [Cmpd V187594] | – | < 10 µM | < 10 µM | 1 to 4 µM | ≥ 4 µM | < 10 µM | – | – | – | –
CNC(=O)CNC(=O)O[C@@H]1[C@@H](O)CN[C@@H]1Cc1ccc(OC)cc1 [V188017, (2R,3S,4S)-4-hydroxy-2-[(4-methoxyphenyl)methyl]pyrrolidin-3-yl N-[(methylcarbamoyl)methyl]carbamate] | 10 to 20 µM | 10 to 20 µM | – | 1 to 4 µM | 1 to 4 µM | < 10 µM | – | – | – | –
COc1ccc(C[C@H]2NC[C@H](O)[C@H]2OC(=O)NC[C@H]2CCNC2)cc1 [V187686, (2R,3S,4S)-4-hydroxy-2-(4-methoxybenzyl)pyrrolidin-3-yl (((S)-pyrrolidin-3-yl)methyl)carbamate] | – | 10 to 20 µM | < 10 µM | 1 to 4 µM | ≥ 4 µM | – | ≥ 4 µM | ≥ 4 µM | ≥ 4 µM | IC50 (KRAS G12D): 10 to 20 µM; IC50 (ALK): < 10 µM
